From paper PMC12787074, “Involvement of Multiple Ion Channels and Receptors in Mediating the Insecticidal and Repellent Actions of Limonene” (International Journal of Molecular Sciences, 2025)

What was measured:
Assay type in all cases: cell-based
[1] = molecular target: T1, AaegRdl1-1 (Rdl, resistance to dieldrin GABA receptor) (Aedes aegypti, UniProt Q16896); assay: two-electrode voltage clamp in Xenopus oocytes; potentiation of […] GABA current
T1 construct: AaegRdl1-1 clone expressed in Xenopus oocytes

[2] = molecular target: T1, AaegRdl1-1 (Rdl, resistance to dieldrin GABA receptor); assay: two-electrode voltage clamp in Xenopus oocytes; agonist-evoked chloride current
[3] = molecular target: T1, AaegRdl1-1 (Rdl, resistance to dieldrin GABA receptor); assay: two-electrode voltage clamp in Xenopus oocytes; block of GABA current

T1 sequence (Q16896 entry or part of it): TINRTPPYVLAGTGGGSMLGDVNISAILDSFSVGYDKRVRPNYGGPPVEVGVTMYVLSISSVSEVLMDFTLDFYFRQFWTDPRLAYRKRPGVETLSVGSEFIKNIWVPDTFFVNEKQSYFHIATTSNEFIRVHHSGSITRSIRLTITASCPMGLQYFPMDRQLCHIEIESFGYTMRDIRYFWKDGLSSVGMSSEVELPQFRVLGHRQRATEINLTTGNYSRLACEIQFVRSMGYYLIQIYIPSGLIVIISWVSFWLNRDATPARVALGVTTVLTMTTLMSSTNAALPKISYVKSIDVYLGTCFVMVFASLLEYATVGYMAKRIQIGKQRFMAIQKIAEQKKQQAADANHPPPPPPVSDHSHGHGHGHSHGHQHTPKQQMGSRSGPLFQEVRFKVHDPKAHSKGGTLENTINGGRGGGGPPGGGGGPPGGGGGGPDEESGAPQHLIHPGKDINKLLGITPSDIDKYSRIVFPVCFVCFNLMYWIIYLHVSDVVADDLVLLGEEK

C=C(C)[C@H]1CC=C(C)CC1 [limonene]
EC50 [1]: 43.3 ± 4.6 µM

NCCCC(=O)O [GABA]
EC50 [2]: 204 ± 18.3 µM

N#Cc1nn(-c2c(Cl)cc(C(F)(F)F)cc2Cl)c(N)c1[S+]([O-])C(F)(F)F (stereo not drawn) [fipronil]
two-electrode voltage clamp in Xenopus oocytes; block of GABA current [3]: IGABA was blocked by the application of a positive control, fipronil, as expected (Supplementary Figure S2)
